Measurements taken from the Kinase Knowledgebase extract (Sharma et al. 2016).

These molecules were tested against PIK3CA (human) (UniProt P42336) (assay: Cell-Based Assay). Settings: bt20.
PIK3CA (human), sequence (P42336 whole entry, looked up): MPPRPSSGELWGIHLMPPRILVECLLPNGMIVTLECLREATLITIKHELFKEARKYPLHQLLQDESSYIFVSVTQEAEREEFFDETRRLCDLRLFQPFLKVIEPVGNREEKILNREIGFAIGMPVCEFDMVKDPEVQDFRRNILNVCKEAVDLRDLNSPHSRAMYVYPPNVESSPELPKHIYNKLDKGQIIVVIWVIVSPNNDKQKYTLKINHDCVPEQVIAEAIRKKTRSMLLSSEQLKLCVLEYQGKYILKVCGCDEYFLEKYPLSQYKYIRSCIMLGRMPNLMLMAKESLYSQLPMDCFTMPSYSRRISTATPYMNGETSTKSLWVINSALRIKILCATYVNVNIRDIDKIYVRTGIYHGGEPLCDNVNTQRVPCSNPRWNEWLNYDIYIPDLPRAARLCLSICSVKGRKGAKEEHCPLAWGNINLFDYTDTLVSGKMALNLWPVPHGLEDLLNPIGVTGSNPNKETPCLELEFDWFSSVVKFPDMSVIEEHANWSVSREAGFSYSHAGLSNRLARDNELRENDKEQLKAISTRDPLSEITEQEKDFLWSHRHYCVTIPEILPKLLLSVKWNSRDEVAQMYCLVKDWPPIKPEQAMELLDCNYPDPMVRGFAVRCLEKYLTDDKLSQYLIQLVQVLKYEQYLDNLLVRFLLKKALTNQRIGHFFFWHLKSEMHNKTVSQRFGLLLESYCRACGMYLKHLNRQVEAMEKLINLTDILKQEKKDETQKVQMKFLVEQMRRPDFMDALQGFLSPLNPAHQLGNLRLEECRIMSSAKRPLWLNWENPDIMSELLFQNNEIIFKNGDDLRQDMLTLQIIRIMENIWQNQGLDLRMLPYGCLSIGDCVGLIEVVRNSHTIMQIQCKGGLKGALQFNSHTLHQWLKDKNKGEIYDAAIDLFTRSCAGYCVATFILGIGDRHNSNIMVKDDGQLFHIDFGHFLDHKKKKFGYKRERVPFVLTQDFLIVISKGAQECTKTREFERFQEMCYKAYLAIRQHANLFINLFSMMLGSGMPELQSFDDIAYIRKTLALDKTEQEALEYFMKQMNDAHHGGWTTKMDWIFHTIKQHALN

Compound | IC50
Cn1c(=O)n(C2CCNCC2)c2c3nc(-c4cnn(CCO)c4)ccc3ncc21 | 3.21 µM
Cn1c(=O)n([C@H]2CC[C@H](O)CC2)c2c3nc(-c4ccc5[nH]ncc5c4)ccc3ncc21 | 0.0205 µM
CN[C@H]1CC[C@H](n2c(=O)n(C)c3cnc4ccc(-c5cnc6ccccc6c5)nc4c32)CC1 | 0.404 µM
COCC(=O)N1CCC(n2c(=O)n(C)c3cnc4ccc(-c5cnc(OC)nc5)nc4c32)CC1 | 0.0123 µM
Cn1c(=O)n([C@H]2CC[C@H](O)CC2)c2c3nc(-c4cc[nH]n4)ccc3ncc21 | 0.264 µM
Cn1cc(-c2ccc3ncc4c(c3n2)n(C2CCN(C(=O)C(C)(C)O)CC2)c(=O)n4C)cn1 | 0.0304 µM
Cn1c(=O)n(C2CCOCC2)c2c3nc(-c4cnn(CCO)c4)ccc3ncc21 | 0.579 µM
Cn1c(=O)n(C2CCN(C(=O)C(C)(C)O)CC2)c2c3nc(-c4cnc5[nH]ncc5c4)ccc3ncc21 | 0.00991 µM
COc1ncc(-c2ccc3ncc4[nH]c(=O)n(-c5ccc(C(C)(C)C#N)cc5)c4c3n2)cn1 | 0.0439 µM
Cn1c(=O)n(C2CCOCC2)c2c3nc(-c4ccn[nH]4)ccc3ncc21 | 0.309 µM
COc1ncc(-c2ccc3ncc4c(c3n2)n(C2CCN(CCO)CC2)c(=O)n4C)cn1 | 0.124 µM
COc1ncc(-c2ccc3ncc4c(c3n2)n(C2CCNCC2)c(=O)n4C)cn1 | 0.333 µM
COc1ncc(-c2ccc3ncc4c(c3n2)n(C2CCN(CC(=O)N(C)C)CC2)c(=O)n4C)cn1 | 0.037 µM
COc1ccc(-c2ccc3ncc4[nH]c(=O)n(Cc5ccccc5)c4c3n2)cn1 | 0.0245 µM
CN1CCC(n2c(=O)n(C)c3cnc4ccc(-c5cnc6ccccc6c5)nc4c32)CC1 | 0.0117 µM
Cn1c(=O)n(C2CCN(CC(F)(F)F)CC2)c2c3nc(-c4cnc5ccccc5c4)ccc3ncc21 | 0.0148 µM
Cn1cc(-c2ccc3ncc4c(c3n2)n([C@H]2CC[C@H](C(N)=O)CC2)c(=O)n4C)cn1 | 0.224 µM
COc1ccc(-c2ccc3ncc4c(c3n2)n([C@@H](C)CO)c(=O)n4C)cn1 | 0.266 µM
C[C@@H](O)C(=O)N1CCC(n2c(=O)n(C)c3cnc4ccc(-c5ccc(N(C)C)nc5)nc4c32)CC1 | 0.00553 µM
Cc1ccc(-c2ccc3ncc4c(c3n2)n([C@H]2CC[C@H](OCCO)CC2)c(=O)n4C)cn1 | 0.00863 µM
CC(=O)N1CCC(n2c(=O)n(C)c3cnc4ccc(-c5cnc6ccccc6c5)nc4c32)CC1 | 0.00459 µM

Compound | IC50
Cc1ccc(-c2ccc3ncc4c(c3n2)n(C2CCN(C(=O)CN(C)C)CC2)c(=O)n4C)cn1 | 0.0427 µM
COc1ccc(-c2ccc3ncc4[nH]c(=O)n([C@H]5CC[C@H](O)CC5)c4c3n2)cn1 | 0.0468 µM
COc1ccc(-c2ccc3ncc4c(c3n2)n(C2CCOCC2)c(=O)n4C)cn1 | 0.0185 µM
CNC(=O)N1CCC(n2c(=O)n(C)c3cnc4ccc(-c5ccc(OC)nc5)nc4c32)CC1 | 0.00919 µM
Cn1c(=O)n(C2CCOCC2)c2c3nc(-c4cnc(N)nc4)ccc3ncc21 | 0.00694 µM
CC(=O)N1CCC(n2c(=O)n(C)c3cnc4ccc(-c5ccnc6[nH]ncc56)nc4c32)CC1 | 0.14 µM
Cn1c(=O)n(C2CCNCC2)c2c3nc(-c4cnc(N)nc4)ccc3ncc21 | 0.137 µM
CN(C)c1ccc(-c2ccc3ncc4c(c3n2)n(C2CCOCC2)c(=O)n4C)cn1 | 0.029 µM
COc1ncc(-c2ccc3ncc4c(c3n2)n(C2CCN(C(=O)[C@H](C)O)CC2)c(=O)n4C)cn1 | 0.0342 µM
Cn1c(=O)n(C2CCN(C(=O)C(C)(C)N)CC2)c2c3nc(-c4cnc5ccccc5c4)ccc3ncc21 | 0.0117 µM
CNC(=O)Nc1ccc(-c2ccc3ncc4c(c3n2)n(C2CCN(C(=O)[C@H](C)O)CC2)c(=O)n4C)cc1 | 0.0815 µM
CC(C)(C#N)c1ccc(-n2c(=O)[nH]c3cnc4ccc(-c5cnc6ccccc6c5)nc4c32)cc1 | 0.00647 µM
COc1ccc(-c2ccc3ncc4c(c3n2)n(C2CCN(CC(N)=O)CC2)c(=O)n4C)cn1 | 0.00714 µM
C[C@H](CO)n1c(=O)n(C)c2cnc3ccc(-c4cnc5[nH]ncc5c4)nc3c21 | 0.0838 µM
CN(C)C(=O)CN1CCC(n2c(=O)n(C)c3cnc4ccc(-c5cnn(C)c5)nc4c32)CC1 | 0.248 µM
CN(C)c1ccc(-c2ccc3ncc4c(c3n2)n(C2CCN(C(=O)C(C)(C)O)CC2)c(=O)n4C)cn1 | 0.00669 µM
CN(C)c1ccc(-c2ccc3ncc4c(c3n2)n(C2CCN(C(=O)C(C)(C)C)CC2)c(=O)n4C)cn1 | 0.0214 µM
CNC(=O)N1CCC(n2c(=O)n(C)c3cnc4ccc(-c5cnc(OC)nc5)nc4c32)CC1 | 0.0681 µM
Cn1cc(-c2ccc3ncc4[nH]c(=O)n(-c5ccc(C(C)(C)C#N)cc5)c4c3n2)cn1 | 0.0973 µM
COc1ncc(-c2ccc3ncc4c(c3n2)n(-c2ccc(C(C)(C)C#N)cc2)c(=O)n4C)cc1F | 0.0907 µM
